Measurements published in PubChem BioAssay AID330 (DTP/NCI, 2004).
Where “and” joins values, the source holds several entries; their conditions need not be identical. Equal entries are not always repeated. Toxic doses and inconclusive results are not listed. The calls were made as follows: active = survival T/C of 150% or more; inactive = T/C below 125% in these data. Peptide text beside a SMILES is read from it. * marks the point of attachment. Cbz = O=C(OCc1ccccc1)*

Tested on: P388 leukemia ip, CD2F1 mice, survival T/C
Assay: NCI In Vivo Anticancer Drug Screen. Data for tumor model P388 Leukemia (intraperitoneal) in CD2F1 (CDF1) mice
Details: endpoint: median survival time, higher = longer survival
Summary of the method: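 Mice carrying the transplanted tumor received test compound or vehicle. Survival was recorded in each group, and the value is the treated-group measurement divided by that of the vehicle-treated control group.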

[1] = dose: 50.0 mg/kg/injection, schedule: Q01DX009 (ip), vehicle: Klucel (hydroxypropylcellulose) (HPC)
[2] = dose: 100.0 mg/kg/injection, schedule: Q01DX009 (ip), vehicle: Klucel (hydroxypropylcellulose) (HPC)
[3] = dose: 60.0 mg/kg/injection, schedule: Q01DX005 (ip), vehicle: saline with Tween-80
[4] = dose: 120.0 mg/kg/injection, schedule: Q01DX005 (ip), vehicle: saline with Tween-80
[5] = dose: 240.0 mg/kg/injection, schedule: Q01DX005 (ip), vehicle: saline with Tween-80
[6] = dose: 100.0 mg/kg/injection, schedule: Q01DX009 (ip), vehicle: saline with Tween-80
[7] = dose: 50.0 mg/kg/injection, schedule: Q01DX005 (ip), vehicle: saline with Tween-80
[8] = dose: 100.0 mg/kg/injection, schedule: Q01DX005 (ip), vehicle: saline with Tween-80
[9] = dose: 200.0 mg/kg/injection, schedule: Q01DX005 (ip), vehicle: saline with Tween-80

Measured: T/C

CCOC(=O)NNCC(=O)OCc1ccccc1
inactive: dose: 25.0 mg/kg/injection, schedule: Q01DX009 (ip), vehicle: other 90 % of control | dose: 50.0 mg/kg/injection, schedule: Q01DX009 (ip), vehicle: other 93 % of control | dose: 100.0 mg/kg/injection, schedule: Q01DX009 (ip), vehicle: other 100 % of control | dose: 200.0 mg/kg/injection, schedule: Q01DX009 (ip), vehicle: other 109 % of control

Clc1ccc(CN2Cc3ccc4cccnc4c3OC2c2ccccn2)cc1Cl (stereo not drawn)
inactive: [1] 100 % of control | [2] 101 % of control | dose: 200.0 mg/kg/injection, schedule: Q01DX009 (ip), vehicle: Klucel (hydroxypropylcellulose) (HPC) 101 % of control

N=C(N)n1ncc2c1CCC/C2=N/N=C(N)N
inactive: [3] 99 % of control | [4] 96 % of control | [5] 103 % of control

CN1c2c(nc(N)[nH]c2=O)NCC1CCNc1ccc(C(=O)NC(CCC(=O)O)C(=O)O)cc1 (stereo not drawn)
inactive: dose: 25.0 mg/kg/injection, schedule: Q01DX009 (ip), vehicle: Klucel (hydroxypropylcellulose) (HPC) 115 % of control | [1] 115 % of control | dose: 75.0 mg/kg/injection, schedule: Q01DX005 (ip), vehicle: saline 100 % of control | dose: 75.0 mg/kg/injection, schedule: Q01DX005 (iv), vehicle: saline 100 % of control | dose: 75.0 mg/kg/injection, schedule: Q01DX009 (ip), vehicle: saline 105 % of control | dose: 75.0 mg/kg/injection, schedule: Q01DX009 (ip), vehicle: sodium bicarbonate 112 % of control | [2] 124 % of control | dose: 100.0 mg/kg/injection, schedule: Q01DX009 (ip), vehicle: saline 113 % of control | dose: 150.0 mg/kg/injection, schedule: Q01DX005 (ip), vehicle: saline 107 % of control | dose: 150.0 mg/kg/injection, schedule: Q01DX005 (iv), vehicle: saline 107 % of control | dose: 150.0 mg/kg/injection, schedule: Q01DX009 (ip), vehicle: saline 108 % of control | dose: 150.0 mg/kg/injection, schedule: Q01DX009 (ip), vehicle: sodium bicarbonate 114 % of control | dose: 300.0 mg/kg/injection, schedule: Q01DX005 (ip), vehicle: saline 109 % of control and 123 % of control | dose: 300.0 mg/kg/injection, schedule: Q01DX005 (iv), vehicle: saline 108 % of control and 113 % of control | dose: 300.0 mg/kg/injection, schedule: Q01DX009 (ip), vehicle: saline 116 % of control | dose: 300.0 mg/kg/injection, schedule: Q01DX009 (ip), vehicle: sodium bicarbonate 120 % of control | dose: 600.0 mg/kg/injection, schedule: Q01DX005 (ip), vehicle: saline 107 % of control and 118 % of control | dose: 600.0 mg/kg/injection, schedule: Q01DX005 (iv), vehicle: saline 104 % of control and 122 % of control | dose: 600.0 mg/kg/injection, schedule: Q01DX009 (ip), vehicle: saline 119 % of control | dose: 600.0 mg/kg/injection, schedule: Q01DX009 (ip), vehicle: sodium bicarbonate 122 % of control | dose: 800.0 mg/kg/injection, schedule: Q01DX009 (ip), vehicle: Klucel (hydroxypropylcellulose) (HPC) 99 % of control

CC(CC(=O)c1ccccc1)=NCCCN=C(C)CC(=O)c1ccccc1
inactive: dose: 50.0 mg/kg/injection, schedule: Q01DX009 (ip), vehicle: saline with Tween-80 112 % of control | [6] 96 % of control | dose: 200.0 mg/kg/injection, schedule: Q01DX009 (ip), vehicle: saline with Tween-80 96 % of control

NC(=O)C(Cc1ccccc1)NC(=O)C(Cc1ccccc1)NC(=O)C(Cc1ccccc1)NC(=O)OCc1ccccc1 (stereo not drawn) (Cbz-Phe-Phe-Phe-NH2; configuration not given here)
inactive: [7] 91 % of control | [8] 97 % of control | [9] 102 % of control

CCCCCCCCCCN1CCOCCOCCN(CCCCCCCCCC)CCOCCOCC1
inactive: dose: 1.56 mg/kg/injection, schedule: Q01DX005 (ip), vehicle: saline with Tween-80 105 % of control | dose: 3.13 mg/kg/injection, schedule: Q01DX005 (ip), vehicle: saline with Tween-80 100 % of control | dose: 6.25 mg/kg/injection, schedule: Q01DX005 (ip), vehicle: saline with Tween-80 107 % of control | dose: 12.5 mg/kg/injection, schedule: Q01DX005 (ip), vehicle: saline with Tween-80 99 % of control

O=C(CNC(=O)Nc1ccc(Cl)c(Cl)c1)N/N=C/c1ccccc1F
inactive: dose: 3.75 mg/kg/injection, schedule: Q01DX005 (ip), vehicle: saline with Tween-80 104 % of control | dose: 7.5 mg/kg/injection, schedule: Q01DX005 (ip), vehicle: saline with Tween-80 102 % of control | dose: 15.0 mg/kg/injection, schedule: Q01DX005 (ip), vehicle: saline with Tween-80 102 % of control and 93 % of control | [3] 95 % of control

COc1cc(/C=C2/Nc3ccc(Cl)cc3NC2=O)ccc1O
inactive: [3] 93 % of control | [4] 98 % of control | [5] 96 % of control

Cc1onc(-c2c(F)cccc2Cl)c1C(=O)Nc1cc2cc([N+](=O)[O-])ccc2oc1=O
inactive: [3] 95 % of control | [4] 97 % of control | [5] 92 % of control

Cc1cc(OCc2nnc3n2S(=O)(=O)c2ccccc2N3C)ccc1Cl
inactive: [3] 87 % of control | [4] 90 % of control

C=CC1=C(C)C2=NC1=CC1=NC(=CC3=C(C)C4=C(O)C(C(=O)OC)C(=C5NC(=C2)C(C)C5CCC(=O)OC/C=C(\C)CCCC(C)CCCC(C)CCCC(C)C)C4=N3)C(CC)=C1C (stereo not drawn)
inactive: [7] 90 % of control | [8] 92 % of control | [9] 92 % of control

CC1=CCC(C(C)C)C=C1 (stereo not drawn)
inactive: [6] 100 % of control | dose: 100.0 mg/kg/injection, schedule: Q04DX003 (ip), vehicle: saline 105 % of control | dose: 200.0 mg/kg/injection, schedule: Q04DX003 (ip), vehicle: saline 100 % of control | dose: 400.0 mg/kg/injection, schedule: Q04DX003 (ip), vehicle: saline 105 % of control

O=S(O)OC1(O)CCCCC1
inactive: dose: 100.0 mg/kg/injection, schedule: Q04DX002 (ip), vehicle: saline 110 % of control | dose: 200.0 mg/kg/injection, schedule: Q04DX002 (ip), vehicle: saline 95 % of control | dose: 400.0 mg/kg/injection, schedule: Q04DX002 (ip), vehicle: saline 100 % of control
